Reference: article PMC6155852, “Oral Administration of the Japanese Traditional Medicine Keishibukuryogan-ka-yokuinin Decreases Reactive Oxygen Metabolites in Rat Plasma: Identification of Chemical Constituents Contributing to Antioxidant Activity” (Molecules : A Journal of Synthetic Chemistry and Natural …, 2017)
Where “and” joins values, the source holds several entries; their conditions need not be identical. Equal entries are not always repeated. Where two headings read alike, the source gives them in different places.

Experiments:
[1] = Plasma pharmacokinetics of KBGY constituents in rats after single oral administration of KBGY; type: in vivo, rat
Procedure: KBGY prepared in water was administered orally to 16 h fasted rats at a dose of 2 g/10 mL/kg (n = 3). […] Plasma was obtained by centrifugation at 1700× g for 15 min at 4 °C and stored at −80 °C until analysis.
For quantification of the dicarboxylic acid, 50 µL of standard solution, 100 µL of acetic acid (2%, v/v), and 650 µL of ethyl acetate were added to 200 µL of plasma samples, followed by mixing and centrifugation (7000× g, 5 min). The supernatants were collected and dried with a centrifugal evaporator and concentration system (CC-105; TOMY SEIKO Co., Tokyo, Japan). The residue was dissolved with 100 µL acetonitrile and 50 µL BF3/butanol solution; the dissolved solution was incubated for 1 h at 60 °C. The reaction was terminated by the addition of 50 µL of water and hexane, 150 µL of a saturated solution of sodium chloride, and 400 µL of hexane. The solution was vortexed for 2 min, and the supernatant was obtained by centrifugation (7000× g, 5 min). Liquid–liquid extraction was repeated twice. The corrected supernatant was dried with the centrifugal evaporator and concentration system. The dried residue was dissolved in 100 µL of acetonitrile containing 1 µg/mL of o-terphenyl (Tokyo Chemical Ind. Co.) as an internal standard (IS). Five microliters of the solution was then injected into the GC/MS system.
For quantification of volatile organic compounds (cinnamaldehyde, methyl cinnamate, 2-methoxycinnamaldehyde, mandelonitrile, salicylaldehyde, eugenol, cinnamyl alcohol, and 3-phenylpropyl acetate), 25 µL of standard solution, 25 µL of 2 µg/mL of 1,4-dibromobenzene (Tokyo Chemical Ind. Co.) as IS, and 500 µL of acetonitrile were added to 200 µL of plasma samples, followed by mixing and centrifugation (7000× g, 5 min). Five microliters of the supernatant was then injected into the GC/MS system.
For quantification of other compounds, 25 µL of standard solution, 25 µL of 2 ng/mL of atropine sulfate monohydrate (Wako Pure Chemical Ind.) or niflumic acid (Sigma-Aldrich) as IS, and 750 µL of methanol were added to 200 µL of plasma samples, followed by mixing and centrifugation (7000× g, 5 min). The supernatant was obtained and dried with the centrifugal evaporator and concentration system after 150 µL of propylene glycol (1%, v/v) was added to the supernatant. The dried residue was then dissolved in 60 μL of the HPLC mobile phase for each analytical method, and a 10 or 20 μL portion was injected into the LC/MS/MS system.
Plasma pharmacokinetic data were analyzed by noncompartmental modeling using Phoenix WinNonlin (version 6.3, Certara L.P., St. Louis, MO, USA) to determine various pharmacokinetic constants, including the maximum concentration (Cmax), time to maximum concentration (tmax), apparent elimination half-life (t1/2), and area under the plasma concentration-time curve from zero to last observation time (AUC0–last). The t1/2 was divided by loge^2/ke, where ke was the terminal elimination (at least three data points on the descending linear limb) rate constant.

[2] = Lipid hydroperoxide (LPO) generation assay (linoleic acid, Fenton reaction); type: biochemical
Procedure: Antioxidant assays using linoleic acid with a purity of 98.0% (Wako Pure Chemical Ind.) were performed using a described protocol with modifications. Briefly, 20 μL of 1% linoleic acid in methanol, 20 μL of 20 mmol/L ferrous chloride in water, 20 μL of test sample in DMSO, and 150 μL of a mixed solution (1:1) of methanol and 20 mmol/L phosphate buffer (pH 7.0) were added to 96-well polypropylene plates. After incubation at room temperature in the dark for 1 h, 10 μL of the reaction products were transferred to 200 μL of a methanol solution containing 39 mmol/L ammonium thiocyanate, 0.2 mmol/L ferrous chloride, and 0.01 mol/L hydrochloride. After incubation for 15 min, absorbance at 500 nm was measured using a microplate reader (Multiskan GO, Thermo Fisher Scientific Inc., Waltham, MA, USA). The concentration of lipid hydroperoxide (LPO) products was calculated conveniently using standard curves of serially-diluted linolein hydroperoxides (Cayman Chemical). The percentage of control was calculated using the following formula; (A − B)/(C − B) × 100, with A = test sample, B = linoleic acid alone, and C = vehicle control. Ascorbic acid was used as a reference agent.

[3] = ROS scavenging assay (hydrogen peroxide-dependent oxidation); type: biochemical; conditions: for IC50: concentration-dependency, Figure 4
Procedure: Hydrogen peroxide-dependent oxidation tests were performed using Oxiselect™ In Vitro ROS/RNS Assay kits (Cellbiolab Inc., San Diego, CA, USA) according to the manufacturer’s protocol. Briefly, a test sample was mixed with hydrogen peroxide (final concentration: 2.5 μmol/L) and incubated for 5 min. A fluorescent reaction was started by the addition of a fluorescent probe (dichrolodihydrofluorescin-DiOxyQ) at room temperature. After incubation for 15 min, relative fluorescent units (RFUs) were measured at […] using a fluorescent plate reader (Infinite M200; Tecan Trading AG, Männedorf, Switzerland). The percentage of control was calculated using the following formula; (A − B)/(C − B) × 100, with A = test sample, B = fluorescent probe alone, and C = vehicle control. (+)-Ascorbic acid was used as a reference agent.

[4] = rat plasma, single oral KBGY 2 g/kg
[5] = 10 μmol/L, more than 100% = no activity
[6] = 1 μmol/L, C.I. = complete inhibition
[7] = 10 μmol/L, C.I. = complete inhibition, more than 100% = no activity

SMILES | Antioxidant Activity (% of Control) LPO Generation [2, 5] | anti-ROS activity ([3]; 10 μmol/L) | Antioxidant Activity (% of Control) ROS Scavenge [3, 7] | AUC(0-t) ([1]; rat, in vivo, po, 2 g/kg) | Cmax ([1]; rat, in vivo, po, 2 g/kg) | Tmax ([1]; rat, in vivo, po, 2 g/kg) | other results
COc1cc([C@@H]2c3c(cc(OC)c(O)c3OC)C[C@H](CO)[C@H]2CO)cc(OC)c1O [Lyoniresinol] | 57.4 ± 1.6 % of Control | strong anti-ROS activity | C.I. | – | – | – | AUC0–last [1, 4]: 0.3 ng·h/mL; Tmax [1, 4]: 1 h; t1/2 [1, 4]: 11.4 h; Antioxidant Activity (% of Control) LPO Generation ([2]; 1 μmol/L): 96.8 ± 2.9 % of Control; Antioxidant Activity (% of Control) LPO Generation ([2]; 10 μmol/L, more than 100% = no activity, listed as lyoniresinol): less than 80 % of Control; Antioxidant Activity (% of Control) ROS Scavenge [3, 6]: 89.3 ± 2.0 % of Control
COc1cc(C(=O)O)cc(O)c1O [3-O-Methylgallic acid] | – | strong anti-ROS activity | C.I. | 58.6 ng·h/mL | 12.7 ng/mL and 69 nM | 1 h | half-life ([1]; rat, in vivo, po, 2 g/kg): 6.59 h; IC50 [3]: 744 nM
O=C1O[C@H]([C@@H](O)CO)C(O)=C1O [(+)-Ascorbic acid, reference compound] | – | – | – | – | – | – | Antioxidant Activity (% of Control) ROS Scavenge ([3]; 114 μmol/L, reference agent): 14.5 ± 0.6 % of Control and 20.2 ± 0.6 % of Control
N#C[C@H](O[C@@H]1O[C@H](CO[C@@H]2O[C@H](CO)[C@@H](O)[C@H](O)[C@H]2O)[C@@H](O)[C@H](O)[C@H]1O)c1ccccc1 [Amygdalin] | 102.0 ± 2.1 % of Control | – | 106.4 ± 0.5 % of Control | – | – | – | AUC(0-t) ([1]; in vivo, rat plasma, single oral KBGY 2 g/kg, read-out: AUC0–last): 79.9 ng·h/mL; Cmax ([1]; in vivo, rat plasma, single oral KBGY 2 g/kg, read-out: Cmax): 37.7 ng/mL and 82 nM; half-life ([1]; in vivo, rat plasma, single oral KBGY 2 g/kg, read-out: t1/2 (converted)): 0.657 h; Tmax ([1]; in vivo, rat plasma, single oral KBGY 2 g/kg, read-out: tmax): 0.5 h
Oc1cc(O)c2c(c1)O[C@H](c1ccc(O)c(O)c1)[C@@H](O)C2 [(+)-Catechin] | 95.4 ± 3.9 % of Control | strong anti-ROS activity | 7.3 ± 1.1 % of Control | – | – | 2 h | AUC0–last ([1]; rat, in vivo, po, 2 g/kg): 65.1 ng·h/mL; IC50 [3]: 621 nM
C=C(CC[C@@H](C(=O)O)[C@H]1[C@H](O)C[C@@]2(C)C3=CC[C@H]4C(C)(C)[C@@H](O)CC[C@]4(C)C3=CC[C@]12C)C(C)C [Dehydrotumulosic acid] | 97.4 ± 3.1 % of Control | – | 106.0 ± 0.4 % of Control | – | – | – | AUC(0-t) ([1]; rat plasma, single oral KBGY 2 g/kg, read-out: AUC0–last): 39.5 ng·h/mL; Cmax ([1]; rat plasma, single oral KBGY 2 g/kg, read-out: Cmax): 15.5 ng/mL and 32 nM; half-life ([1]; rat plasma, single oral KBGY 2 g/kg, read-out: t1/2 (converted)): 3.81 h; Tmax ([1]; rat plasma, single oral KBGY 2 g/kg, read-out: tmax): 0.5 h
COc1cc(C[C@H]2CO[C@H](c3ccc(O)c(OC)c3)[C@H]2CO)ccc1O [Lariciresinol] | 79.5 ± 1.9 % of Control | strong anti-ROS activity | C.I. | 9.84 ng·h/mL | 1.68 ng/mL and 5 nM | 4 h | Antioxidant Activity (% of Control) LPO Generation ([2]; 1 μmol/L): 98.3 ± 1.4 % of Control; Antioxidant Activity (% of Control) LPO Generation ([2]; 10 μmol/L, more than 100% = no activity, listed as lariciresinol): less than 80 % of Control; Antioxidant Activity (% of Control) ROS Scavenge [3, 6]: C.I.; IC50 [3]: 561 nM
O=C(O)CCCCC(=O)O [Adipic acid] | 103.6 ± 2.9 % of Control | – | 97.0 ± 0.9 % of Control | 17.1 ng·h/mL | 14.4 ng/mL and 99 nM | 6 h | –
O=C1OC[C@H](Cc2cccc(O)c2)[C@H]1Cc1cccc(O)c1 [Enterolactone] | 86.1 ± 0.9 % of Control | strong anti-ROS activity | C.I. | 1.33 ng·h/mL | 1.07 ng/mL and 4 nM | 4 h | Antioxidant Activity (% of Control) LPO Generation ([2]; 1 μmol/L): 102.1± 2.7 % of Control; Antioxidant Activity (% of Control) ROS Scavenge [3, 6]: 81.6 ± 2.9 % of Control
C=C(CC[C@@H](C(=O)O)[C@H]1[C@H](O)C[C@@]2(C)C3=C(CC[C@]12C)[C@@]1(C)CC[C@H](O)C(C)(C)[C@@H]1CC3)C(C)C [Tumulosic acid] | 99.4 ± 2.3 % of Control | – | 105.9 ± 2.1 % of Control | 700 ng·h/mL | 200 ng/mL and 411 nM | 0.5 h | half-life ([1]; rat, in vivo, po, 2 g/kg): 4.66 h
C[C@]12C[C@@H](O)[C@@H]3C[C@@]1(O[C@@H]1O[C@H](CO)[C@@H](O)[C@H](O)[C@H]1O)[C@@]3(COC(=O)c1ccccc1)C(=O)O2 [Albiflorin] | 101.6 ± 2.2 % of Control | – | 104.2 ± 1.1 % of Control | – | – | – | AUC0–last [1, 4]: 64.9 ng·h/mL; Tmax [1, 4]: 0.5 h; t1/2 [1, 4]: 1.6 h
C=C(CC[C@@H](C(=O)O)[C@H]1[C@H](O)C[C@@]2(C)C3=C(CC[C@]12C)[C@@]1(C)CC[C@H](OC(C)=O)C(C)(C)[C@@H]1CC3)C(C)C [Pachymic acid] | – | – | – | 5.29 ng·h/mL | 1.21 ng/mL and 2 nM | 4 h | –
O=C(O)/C=C/c1ccccc1 [(E)-Cinnamic acid] | 104.3 ± 2.3 % of Control | – | 108.7 ± 2.2 % of Control | – | – | – | –
